Measured values taken from US20080260807A1, “Water-Soluble Films Comprising Nicotine” (Bio Progress Technology Limited, priority 2005, published 2008).

Assays:
[1] = aqueous solution of hydroxyl ethyl cellulose, Pullulan, polyvinyl pyrollidone and propylene glycol alginate, cast to thin film
Text: Alternatively, films of the present invention can be made by dissolving NBD in an aqueous solution of hydroxyl ethyl cellulose, Pullulan, polyvinyl pyrollidone (“PVP”), and propylene glycol alginate (“POGA”). This solution can then be cast to form thin films of the present invention. […] Films made according to the process, in addition to comprising embodiments of the present invention, can be used as the base water-soluble film to which the fluid comprising nicotine is applied. Further, or in the alternative, the aqueous solution thus described can comprise the fluid comprising nicotine for application to the base water-soluble film.

[2] = in water or alcohol; cited from earlier work

SMILES	Crystallisation during formation of the film [1]	Solubility [2]
CN1CCCC1c1cccnc1.O.O.O=C(O)C(O)C(O)C(=O)O (centres unmarked) [Nicotine Bitartrate Dihydrate, nicotine bitartrate dihydrate]	does not crystallize	
CN1CCCC1c1cccnc1 (centres unmarked) [Nicotine]		Soluble in water
